Data as given in paper PMC7004409 (PLoS Pathogens, 2020).

Tests used:
Format in all cases: biochemical
[1] = biological target: T1, HIV-1 GagΔMA (GagΔMAΔp1Δp6) (Human immunodeficiency virus type 1 (NEW YORK-5 ISOLATE), UniProt P12493); conditions: GT25 oligo, pH 6
T1 construct: gene gag; Gag lacking MA, p1 and p6 (CA-SP1-NC); SUMO-tag purification, E. coli

SIV GagΔMA = biological target: T2, SIV GagΔMA (Simian immunodeficiency virus (MM251 ISOLATE), UniProt P05893); conditions: 50 mM Tris pH 8, 100 mM NaCl, GT25 oligo, dialysis, 22 °C
T2 construct: gene gag; Gag lacking MA; SUMO-tag purification

HIV-2 GagΔMA = biological target: T3, HIV-2 GagΔMA (Human immunodeficiency virus type 2 (ISOLATE ROD), UniProt P04590); conditions: 50 mM Tris pH 8, 100 mM NaCl, GT25 oligo, dialysis, 22 °C
T3 construct: gene gag; Gag lacking MA; SUMO-tag purification

BIV GagΔMA = biological target: T4, BIV GagΔMA (Bovine immunodeficiency virus R29, UniProt P19558); conditions: 50 mM MES pH 6.5, 100 mM NaCl, GT50 oligo, dilution, 22 °C
T4 construct: gene gag; Gag lacking MA; SUMO-tag purification

FIV GagΔMA = biological target: T5, FIV GagΔMA (Feline immunodeficiency virus (isolate Petaluma), UniProt P16087); conditions: 50 mM Bis-Tris propane, 150 mM NaCl, GT50 oligo, dilution, 22 °C
T5 construct: gene gag; Gag lacking MA; SUMO-tag purification

Structure (SMILES)	fold increase of round VLPs at 10 μM [1] [fold]	VLP number with / without IP6 (SIV GagΔMA)	VLP number with / without IP6 (HIV-2 GagΔMA)	VLP number with / without IP6 (BIV GagΔMA)	VLP number with / without IP6 (FIV GagΔMA)
O=P(O)(O)O[C@@H]1[C@@H](OP(=O)(O)O)[C@H](OP(=O)(O)O)[C@H](O)[C@H](OP(=O)(O)O)[C@H]1OP(=O)(O)O [IP5]	1000				
O=P(O)(O)O[C@H]1[C@H](OP(=O)(O)O)[C@@H](OP(=O)(O)O)[C@H](OP(=O)(O)O)[C@@H](OP(=O)(O)O)[C@H]1OP(=O)(O)O [IP6]		in the presence of IP6, spherical VLP assembly consistent with an immature lattice was observed	in the presence of IP6, spherical VLP assembly consistent with an immature lattice was observed	in the presence of IP6, spherical VLP assembly consistent with an immature lattice was observed	in the presence of IP6, spherical VLP assembly consistent with an immature lattice was observed
